This passage reports remaining binding results from patent publication US12479847B2 (DANA-FARBER CANCER INSTITUTE, INC., priority 2019, dated 2025).

Experiment in all cases: KINOMEscan (ScanMAX) kinase profiling
Common to all, as to format: binding

In experiment [1] the target is T1, panel of 468 kinases (Homo sapiens, UniProt Q9UM73).
T1 construct: purchased KINOMEscan (ScanMAX) service
The note with it: ALK; 1 μM; read-out: % control.

Experiment [2] addresses T2, panel of 468 kinases (Homo sapiens, UniProt Q86UX6).
T2 construct: purchased KINOMEscan (ScanMAX) service
The note with it: YANK3; 1 μM; read-out: % control.

The target in experiment [3] is T3, panel of 468 kinases (Homo sapiens, UniProt Q13043).
T3 construct: purchased KINOMEscan (ScanMAX) service
T3 sequence (Q13043 1-487): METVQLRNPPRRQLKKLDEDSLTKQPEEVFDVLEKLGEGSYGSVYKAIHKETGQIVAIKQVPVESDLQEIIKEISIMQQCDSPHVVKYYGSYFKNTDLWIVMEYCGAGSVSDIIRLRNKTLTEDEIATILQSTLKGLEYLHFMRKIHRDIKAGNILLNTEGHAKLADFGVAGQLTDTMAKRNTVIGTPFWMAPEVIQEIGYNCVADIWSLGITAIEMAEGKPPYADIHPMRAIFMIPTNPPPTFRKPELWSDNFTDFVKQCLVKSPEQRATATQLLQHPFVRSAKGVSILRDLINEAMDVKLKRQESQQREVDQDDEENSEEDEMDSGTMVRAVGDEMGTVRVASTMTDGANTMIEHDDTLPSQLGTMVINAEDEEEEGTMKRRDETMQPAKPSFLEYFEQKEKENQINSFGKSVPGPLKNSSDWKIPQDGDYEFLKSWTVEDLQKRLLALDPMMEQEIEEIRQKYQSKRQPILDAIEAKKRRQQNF
The note with it: MST1; 1 μM; read-out: % control.

For experiment [4], the target named is T4, panel of 468 kinases (Homo sapiens, UniProt Q13470).
T4 construct: purchased KINOMEscan (ScanMAX) service
T4 sequence (Q13470 1-666): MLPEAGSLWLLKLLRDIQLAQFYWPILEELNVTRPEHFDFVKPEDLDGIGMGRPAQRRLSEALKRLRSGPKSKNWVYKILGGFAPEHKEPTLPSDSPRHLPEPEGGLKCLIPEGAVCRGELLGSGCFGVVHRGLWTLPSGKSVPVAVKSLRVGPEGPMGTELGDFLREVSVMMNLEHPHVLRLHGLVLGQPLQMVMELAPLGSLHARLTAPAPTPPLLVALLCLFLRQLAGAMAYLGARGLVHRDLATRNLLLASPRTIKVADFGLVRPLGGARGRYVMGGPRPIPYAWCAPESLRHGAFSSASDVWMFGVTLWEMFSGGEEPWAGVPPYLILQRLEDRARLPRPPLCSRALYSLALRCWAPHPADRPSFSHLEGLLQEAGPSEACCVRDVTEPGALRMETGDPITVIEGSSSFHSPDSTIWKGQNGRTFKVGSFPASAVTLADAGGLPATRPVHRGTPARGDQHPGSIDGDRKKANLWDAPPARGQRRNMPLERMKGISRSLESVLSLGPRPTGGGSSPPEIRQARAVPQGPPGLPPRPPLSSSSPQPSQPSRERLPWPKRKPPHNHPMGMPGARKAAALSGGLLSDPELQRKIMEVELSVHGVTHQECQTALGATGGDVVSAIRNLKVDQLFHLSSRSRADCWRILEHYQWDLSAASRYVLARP
The following applies: TNK1; 1 μM; read-out: % control.

Experiment [5] has as its target T5, panel of 468 kinases (Homo sapiens, UniProt Q9BRS2).
T5 construct: purchased KINOMEscan (ScanMAX) service
T5 sequence (Q9BRS2 1-568): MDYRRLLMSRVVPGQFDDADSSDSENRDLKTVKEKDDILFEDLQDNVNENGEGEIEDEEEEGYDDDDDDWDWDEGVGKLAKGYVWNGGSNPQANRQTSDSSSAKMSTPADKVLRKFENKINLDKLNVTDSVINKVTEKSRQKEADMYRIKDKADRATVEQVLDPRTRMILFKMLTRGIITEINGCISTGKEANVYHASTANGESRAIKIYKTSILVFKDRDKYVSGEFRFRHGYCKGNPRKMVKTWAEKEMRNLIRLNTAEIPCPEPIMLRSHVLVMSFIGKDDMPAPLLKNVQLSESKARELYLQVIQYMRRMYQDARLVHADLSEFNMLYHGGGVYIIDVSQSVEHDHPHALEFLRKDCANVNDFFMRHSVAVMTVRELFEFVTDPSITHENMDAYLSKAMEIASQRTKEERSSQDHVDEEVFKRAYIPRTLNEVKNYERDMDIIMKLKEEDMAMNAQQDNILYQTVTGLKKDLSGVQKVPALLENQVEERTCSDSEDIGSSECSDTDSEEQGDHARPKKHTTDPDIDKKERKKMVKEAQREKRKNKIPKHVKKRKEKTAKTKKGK
The following applies: RIOK1; 1 μM; read-out: % control.

The target of experiment [6] is T6, panel of 468 kinases (Homo sapiens, UniProt Q13464).
T6 construct: purchased KINOMEscan (ScanMAX) service
The note with it: ROCK1; 1 μM; read-out: % control.

Experiment [7] addresses T7, panel of 468 kinases (Homo sapiens, UniProt Q15831).
T7 construct: purchased KINOMEscan (ScanMAX) service
T7 sequence (Q15831 1-433): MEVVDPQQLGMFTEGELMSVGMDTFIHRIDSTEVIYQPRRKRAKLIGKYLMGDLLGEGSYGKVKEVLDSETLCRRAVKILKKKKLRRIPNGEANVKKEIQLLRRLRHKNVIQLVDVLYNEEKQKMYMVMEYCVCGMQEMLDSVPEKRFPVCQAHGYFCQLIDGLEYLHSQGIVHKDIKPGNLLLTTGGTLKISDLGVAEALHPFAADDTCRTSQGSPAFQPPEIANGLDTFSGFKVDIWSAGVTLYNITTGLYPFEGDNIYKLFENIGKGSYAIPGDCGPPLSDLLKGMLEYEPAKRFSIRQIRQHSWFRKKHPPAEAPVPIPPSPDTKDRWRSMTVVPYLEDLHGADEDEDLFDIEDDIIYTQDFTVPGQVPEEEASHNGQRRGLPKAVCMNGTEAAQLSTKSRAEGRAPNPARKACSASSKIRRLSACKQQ
The following applies: LKB1; 1 μM; read-out: % control.

T2 sequence (Q86UX6 whole entry): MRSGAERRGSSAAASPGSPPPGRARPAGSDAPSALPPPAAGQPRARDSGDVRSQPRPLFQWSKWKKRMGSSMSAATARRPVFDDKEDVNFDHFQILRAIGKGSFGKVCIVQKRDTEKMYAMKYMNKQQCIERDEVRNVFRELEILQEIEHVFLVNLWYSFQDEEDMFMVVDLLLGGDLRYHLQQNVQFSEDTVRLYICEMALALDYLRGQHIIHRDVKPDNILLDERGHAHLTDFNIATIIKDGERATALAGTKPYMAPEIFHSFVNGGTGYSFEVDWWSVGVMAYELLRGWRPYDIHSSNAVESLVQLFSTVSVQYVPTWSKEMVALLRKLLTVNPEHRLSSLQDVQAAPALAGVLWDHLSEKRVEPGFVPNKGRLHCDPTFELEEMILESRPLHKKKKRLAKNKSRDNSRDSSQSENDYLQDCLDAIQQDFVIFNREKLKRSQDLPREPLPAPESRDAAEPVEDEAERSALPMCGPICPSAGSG
T6 sequence (Q13464 whole entry): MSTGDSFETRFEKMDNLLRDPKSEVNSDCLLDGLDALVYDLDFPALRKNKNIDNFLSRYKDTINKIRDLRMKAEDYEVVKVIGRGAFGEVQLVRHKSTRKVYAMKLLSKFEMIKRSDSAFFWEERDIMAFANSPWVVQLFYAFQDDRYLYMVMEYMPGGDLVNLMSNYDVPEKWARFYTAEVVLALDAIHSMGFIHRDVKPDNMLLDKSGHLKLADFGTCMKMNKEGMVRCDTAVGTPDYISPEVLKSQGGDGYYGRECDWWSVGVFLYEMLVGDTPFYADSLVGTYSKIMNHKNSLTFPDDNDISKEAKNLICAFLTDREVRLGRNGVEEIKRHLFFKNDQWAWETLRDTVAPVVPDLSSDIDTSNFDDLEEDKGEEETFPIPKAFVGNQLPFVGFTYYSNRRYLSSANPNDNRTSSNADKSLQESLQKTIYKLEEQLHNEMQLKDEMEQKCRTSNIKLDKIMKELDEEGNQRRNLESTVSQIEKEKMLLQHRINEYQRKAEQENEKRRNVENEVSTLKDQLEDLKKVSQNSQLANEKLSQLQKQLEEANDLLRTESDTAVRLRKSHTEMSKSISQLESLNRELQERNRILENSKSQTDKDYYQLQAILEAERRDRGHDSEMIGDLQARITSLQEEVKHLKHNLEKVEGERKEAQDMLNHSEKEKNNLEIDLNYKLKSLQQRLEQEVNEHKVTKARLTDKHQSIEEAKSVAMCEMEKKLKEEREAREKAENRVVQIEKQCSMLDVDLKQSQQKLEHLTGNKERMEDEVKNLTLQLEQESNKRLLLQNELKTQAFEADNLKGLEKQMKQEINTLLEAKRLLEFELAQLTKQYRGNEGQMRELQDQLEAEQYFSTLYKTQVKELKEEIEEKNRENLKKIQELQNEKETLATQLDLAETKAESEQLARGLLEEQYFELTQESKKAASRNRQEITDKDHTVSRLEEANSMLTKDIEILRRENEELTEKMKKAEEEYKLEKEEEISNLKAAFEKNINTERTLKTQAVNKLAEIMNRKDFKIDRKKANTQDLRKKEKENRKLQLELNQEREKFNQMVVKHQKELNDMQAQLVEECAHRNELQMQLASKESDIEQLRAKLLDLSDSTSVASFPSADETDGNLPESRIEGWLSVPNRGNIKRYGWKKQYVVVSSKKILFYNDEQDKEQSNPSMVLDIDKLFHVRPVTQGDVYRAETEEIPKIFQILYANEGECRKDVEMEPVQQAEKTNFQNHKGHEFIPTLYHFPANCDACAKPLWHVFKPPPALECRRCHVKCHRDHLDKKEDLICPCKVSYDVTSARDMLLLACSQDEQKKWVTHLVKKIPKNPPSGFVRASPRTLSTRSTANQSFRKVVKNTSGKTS
T1 sequence (Q9UM73 19-1620): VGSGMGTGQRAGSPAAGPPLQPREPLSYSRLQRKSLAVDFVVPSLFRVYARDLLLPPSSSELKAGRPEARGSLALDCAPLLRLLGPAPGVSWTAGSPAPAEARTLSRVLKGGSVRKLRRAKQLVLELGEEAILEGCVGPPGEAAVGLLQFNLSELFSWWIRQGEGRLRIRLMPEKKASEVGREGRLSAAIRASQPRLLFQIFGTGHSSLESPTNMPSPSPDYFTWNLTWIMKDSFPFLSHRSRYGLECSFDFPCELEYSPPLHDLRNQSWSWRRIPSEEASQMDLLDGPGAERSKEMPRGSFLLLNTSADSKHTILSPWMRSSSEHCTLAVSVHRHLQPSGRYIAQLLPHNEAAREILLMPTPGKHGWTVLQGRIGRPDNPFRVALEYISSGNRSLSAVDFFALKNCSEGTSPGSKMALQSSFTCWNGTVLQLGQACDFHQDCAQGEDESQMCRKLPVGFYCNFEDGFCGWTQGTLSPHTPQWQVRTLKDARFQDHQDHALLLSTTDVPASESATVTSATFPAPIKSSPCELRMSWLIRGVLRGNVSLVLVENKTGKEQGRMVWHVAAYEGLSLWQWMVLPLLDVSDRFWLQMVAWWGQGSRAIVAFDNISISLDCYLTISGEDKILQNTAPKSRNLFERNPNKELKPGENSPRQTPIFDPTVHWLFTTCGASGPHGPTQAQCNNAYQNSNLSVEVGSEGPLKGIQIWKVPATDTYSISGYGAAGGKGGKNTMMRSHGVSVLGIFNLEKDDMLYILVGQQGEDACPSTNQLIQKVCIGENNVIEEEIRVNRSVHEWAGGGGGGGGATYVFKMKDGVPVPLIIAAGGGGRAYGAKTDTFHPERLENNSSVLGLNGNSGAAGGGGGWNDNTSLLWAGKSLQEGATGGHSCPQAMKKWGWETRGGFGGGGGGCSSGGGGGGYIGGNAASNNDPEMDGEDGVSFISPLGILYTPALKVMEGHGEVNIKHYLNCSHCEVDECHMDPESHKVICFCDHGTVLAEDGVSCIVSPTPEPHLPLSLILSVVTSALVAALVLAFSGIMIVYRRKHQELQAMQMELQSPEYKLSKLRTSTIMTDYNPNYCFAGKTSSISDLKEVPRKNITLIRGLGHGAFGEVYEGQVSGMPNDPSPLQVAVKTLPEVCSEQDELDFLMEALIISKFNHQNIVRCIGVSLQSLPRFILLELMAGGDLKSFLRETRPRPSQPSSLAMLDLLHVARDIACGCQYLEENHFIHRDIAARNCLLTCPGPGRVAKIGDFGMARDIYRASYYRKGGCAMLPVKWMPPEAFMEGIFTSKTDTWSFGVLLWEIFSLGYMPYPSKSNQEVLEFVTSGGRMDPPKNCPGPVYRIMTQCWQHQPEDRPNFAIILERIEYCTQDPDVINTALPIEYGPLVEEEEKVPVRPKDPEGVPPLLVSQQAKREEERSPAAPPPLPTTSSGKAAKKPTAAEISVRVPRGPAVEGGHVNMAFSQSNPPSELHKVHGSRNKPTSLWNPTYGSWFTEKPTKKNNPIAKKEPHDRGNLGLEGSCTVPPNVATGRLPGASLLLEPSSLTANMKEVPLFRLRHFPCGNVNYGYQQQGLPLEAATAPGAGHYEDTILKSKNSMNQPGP

Consider `CNc1nc(Nc2ccc(S(=O)(=O)N3CCC(N4CCOCC4)CC3)cc2OC)nc2[nH]cc(Cl)c12` [Compound 12, 5-chloro-N2-(2-methoxy-4-((4-morpholinopiperidin-1-yl)sulfonyl)phenyl)-N4-methyl-7H-pyrrolo[2,3-d]pyrimidine-2,4-diamine], for which the remaining binding at 1 µM in experiment [1] came out at 3.4%; in experiment [2], 100%; in experiment [3] it was 81%; in experiment [4], 100%; in experiment [5] it was 100%; in experiment [6] it was 100%. Also, the remaining binding at 1 µM in experiment [7] is 100%.
As to `CNc1nc(Nc2ccc(P3(=O)CCN(C4CCOCC4)CC3)cc2OC)nc2[nH]cc(Cl)c12` [Compound 77, 4-(4-((5-chloro-4-(methylamino)-7H-pyrrolo[2,3-d]pyrimidin-2-yl)amino)-3-methoxyphenyl)-1-(tetrahydro-2H-pyran-4-yl)-1,4-azaphosphinane 4-oxide], the remaining binding at 1 µM in experiment [1] turned out to be 2%; in experiment [2], 100%; in experiment [3], 100%; in experiment [4] it was 96%; in experiment [5] it was 98%; in experiment [6], 95%. For the same compound, in experiment [7], the remaining binding at 1 µM is 100%.
Consider `CNc1nc(Nc2ccc(C(=O)N3CCC(N4CCOCC4)CC3)c3c2OCO3)nc2[nH]cc(Cl)c12` [Compound 75, (7-((5-chloro-4-(methylamino)-7H-pyrrolo[2,3-d]pyrimidin-2-yl)amino)benzo[d][1,3]dioxol-4-yl)(4-morpholinopiperidin-1-yl)methanone], for which the remaining binding at 1 µM turned out to be 1.9% in experiment [1]; 100% in experiment [2]; 100% in experiment [3]; 100% in experiment [4]; 48% in experiment [5]; 35% in experiment [6]. Further, in experiment [7], the remaining binding at 1 µM came out at 100%.
